In PubChem BioAssay (NCI):
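Five concentrations, 48 hours, 96-well plates. Definition used: TGI = concentration required for complete inhibition of growth.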 Where a SMILES comes first, the peptide text is derived from it. [ ]: non-standard residue; d: D form. The star is where a group is joined. mTyr = N[CH](Cc1cccc(O)c1)C(=O)O; Cbz = O=C(OCc1ccccc1)*; OBn = c1ccc(CO*)cc1

Tested on: ACHN renal
Test: growth of human tumour cells (NCI), 48 h

SMILES	TGI [µM]
CC1(O)OC(=O)C2=C1CCC1C2CCC2(C)C(O)CCC12 (stereo not drawn)	> 100
COC(=O)c1c(O)ccc2c1C1(Cc3ccccc3C1=O)C(O)O2 (stereo not drawn)	55.7
C=CCOC(=O)C1C2OC3(C(C(=O)OC)=C2C(=O)OC)c2ccccc2CCC13 (stereo not drawn)	> 10
Cc1ccc(/C(O)=C/C(=O)C(=O)NN=C(c2ccccc2)c2ccccc2)cc1	> 100
CC[C@@H](/C=C\CCC(=O)C[C@H](O)CCC=C(C)C)O[Si](C(C)C)(C(C)C)C(C)C	> 100
Cc1ccc2nc(NC(=O)/C(Cc3nc4ccc(Cl)cc4[nH]c3=O)=N\NC(C)(C)C)sc2c1	> 100
CC1=NN(C(=O)CSc2nc3ccc(I)cc3c(=O)n2Cc2ccccc2)C(=O)C1	> 100
CCC(c1c[nH]c2ccc(Br)cc12)c1c[nH]c2ccc(Br)cc12	12.8
c1ccc(CSCCc2ccncc2)cc1	> 100
COc1ccc2c(c1)CCN1CCc3cc(OC)c(OC)cc3CC21 (stereo not drawn)	> 100
O=c1onc2c3ccccc3ncn12	> 100
Cc1n[nH]c(=O)n1/N=C/c1ccc([N+](=O)[O-])o1	28.7
O=C(Nc1cccc(F)c1)c1cc2ccc(O)cc2oc1=Nc1ccccc1F	14.2
COc1ccc(-n2cnc3c(NC(CCSC)C(=O)O)ncnc32)cc1 (stereo not drawn)	> 100
CCC1(COC(NC(=O)c2ccccc2)(C(F)(F)F)C(F)(F)F)COC1	> 100
Nc1ccc(CCN2CCN(CCCc3ccccc3)CC2)cc1	> 100
COC(=O)C(Cc1cccc(O)c1)NC(=O)C(CC(=O)OCc1ccccc1)NC(=O)OCc1ccccc1 (stereo not drawn) (Cbz-Asp(OBn)-[mTyr]-OMe; configuration not given here)	> 100
COc1ccc2oc(=N)c(C(=O)Nc3ccccn3)cc2c1	> 100
CN(C)CCCN1c2ccccc2CCc2ccc([N+](=O)[O-])cc21	> 100
COc1ccc(N=C2C(=Nc3ccc(OC)cc3)N(c3ccccc3)C(=S)N2N=C=C2Sc3ccccc3N2C)cc1	> 100
COc1ccc(CSc2ccccc2Cn2cccc2)cc1OC	> 100
COC(=O)C1=C(OC(=O)c2ccccc2)C(C(=O)OC)[C@]2(O)[C@@H](C(=O)OC)[C@H]1C[C@@H](c1ccccc1)[C@@H]2C(=O)OC (stereo partly drawn)	72.4

Tested on: COLO 205 colon
Test: growth of human tumour cells (NCI), 48 h

SMILES	TGI [µM]
COC(=O)c1c(O)ccc2c1C1(Cc3ccccc3C1=O)C(O)O2 (stereo not drawn)	> 100
O=C1C[C@@H](c2ccccc2)O[C@@H](c2ccccc2)C1	> 100
C=CCOC(=O)C1C2OC3(C(C(=O)OC)=C2C(=O)OC)c2ccccc2CCC13 (stereo not drawn)	> 10
Cc1ccc(/C(O)=C/C(=O)C(=O)NN=C(c2ccccc2)c2ccccc2)cc1	> 100
CC[C@@H](/C=C\CCC(=O)C[C@H](O)CCC=C(C)C)O[Si](C(C)C)(C(C)C)C(C)C	> 100
Cc1ccc2nc(NC(=O)/C(Cc3nc4ccc(Cl)cc4[nH]c3=O)=N\NC(C)(C)C)sc2c1	> 100
CC1=NN(C(=O)CSc2nc3ccc(I)cc3c(=O)n2Cc2ccccc2)C(=O)C1	92.5
CCC(c1c[nH]c2ccc(Br)cc12)c1c[nH]c2ccc(Br)cc12	6.09
c1ccc(CSCCc2ccncc2)cc1	> 100
COc1ccc2c(c1)CCN1CCc3cc(OC)c(OC)cc3CC21 (stereo not drawn)	> 100
O=c1onc2c3ccccc3ncn12	> 100
Cc1n[nH]c(=O)n1/N=C/c1ccc([N+](=O)[O-])o1	20.8
O=C(Nc1cccc(F)c1)c1cc2ccc(O)cc2oc1=Nc1ccccc1F	41.7
COc1ccc(-n2cnc3c(NC(CCSC)C(=O)O)ncnc32)cc1 (stereo not drawn)	> 100
O=C(CC(=O)Nc1ccccc1)N/N=C/c1cc(N=Nc2ccc(Br)cc2)ccc1O	> 10
CCC1(COC(NC(=O)c2ccccc2)(C(F)(F)F)C(F)(F)F)COC1	> 100
Nc1ccc(CCN2CCN(CCCc3ccccc3)CC2)cc1	> 100
COC(=O)C(Cc1cccc(O)c1)NC(=O)C(CC(=O)OCc1ccccc1)NC(=O)OCc1ccccc1 (stereo not drawn) (Cbz-Asp(OBn)-[mTyr]-OMe; configuration not given here)	> 100
COc1ccc2oc(=N)c(C(=O)Nc3ccccn3)cc2c1	> 100
CN(C)CCCN1c2ccccc2CCc2ccc([N+](=O)[O-])cc21	32
COc1ccc(N=C2C(=Nc3ccc(OC)cc3)N(c3ccccc3)C(=S)N2N=C=C2Sc3ccccc3N2C)cc1	> 100
COc1ccc(CSc2ccccc2Cn2cccc2)cc1OC	> 100
COC(=O)C1=C(OC(=O)c2ccccc2)C(C(=O)OC)[C@]2(O)[C@@H](C(=O)OC)[C@H]1C[C@@H](c1ccccc1)[C@@H]2C(=O)OC (stereo partly drawn)	21.8

Tested on: MALME-3M melanoma
Test: growth of human tumour cells (NCI), 48 h

SMILES	TGI [µM]
CC1(O)OC(=O)C2=C1CCC1C2CCC2(C)C(O)CCC12 (stereo not drawn)	> 100
COC(=O)c1c(O)ccc2c1C1(Cc3ccccc3C1=O)C(O)O2 (stereo not drawn)	71.4
O=C1C[C@@H](c2ccccc2)O[C@@H](c2ccccc2)C1	> 100
C=CCOC(=O)C1C2OC3(C(C(=O)OC)=C2C(=O)OC)c2ccccc2CCC13 (stereo not drawn)	> 10
Cc1ccc(/C(O)=C/C(=O)C(=O)NN=C(c2ccccc2)c2ccccc2)cc1	> 100
CCC(c1c[nH]c2ccc(Br)cc12)c1c[nH]c2ccc(Br)cc12	24.9
c1ccc(CSCCc2ccncc2)cc1	> 100
Cc1n[nH]c(=O)n1/N=C/c1ccc([N+](=O)[O-])o1	15.5
O=C(Nc1cccc(F)c1)c1cc2ccc(O)cc2oc1=Nc1ccccc1F	18.6
O=C(CC(=O)Nc1ccccc1)N/N=C/c1cc(N=Nc2ccc(Br)cc2)ccc1O	> 10
Nc1ccc(CCN2CCN(CCCc3ccccc3)CC2)cc1	> 100
COC(=O)C(Cc1cccc(O)c1)NC(=O)C(CC(=O)OCc1ccccc1)NC(=O)OCc1ccccc1 (stereo not drawn) (Cbz-Asp(OBn)-[mTyr]-OMe; configuration not given here)	> 100
COc1ccc2oc(=N)c(C(=O)Nc3ccccn3)cc2c1	> 100
CN(C)CCCN1c2ccccc2CCc2ccc([N+](=O)[O-])cc21	35.2
COc1ccc(N=C2C(=Nc3ccc(OC)cc3)N(c3ccccc3)C(=S)N2N=C=C2Sc3ccccc3N2C)cc1	> 100
COc1ccc(CSc2ccccc2Cn2cccc2)cc1OC	> 100
COC(=O)C1=C(OC(=O)c2ccccc2)C(C(=O)OC)[C@]2(O)[C@@H](C(=O)OC)[C@H]1C[C@@H](c1ccccc1)[C@@H]2C(=O)OC (stereo partly drawn)	52.1

Tested on: NCI-H522 lung
Test: growth of human tumour cells (NCI), 48 h

SMILES	TGI [µM]
CC1(O)OC(=O)C2=C1CCC1C2CCC2(C)C(O)CCC12 (stereo not drawn)	> 100
COC(=O)c1c(O)ccc2c1C1(Cc3ccccc3C1=O)C(O)O2 (stereo not drawn)	18.1
CC[C@@H](/C=C\CCC(=O)C[C@H](O)CCC=C(C)C)O[Si](C(C)C)(C(C)C)C(C)C	> 100
CC1=NN(C(=O)CSc2nc3ccc(I)cc3c(=O)n2Cc2ccccc2)C(=O)C1	21.2
CCC(c1c[nH]c2ccc(Br)cc12)c1c[nH]c2ccc(Br)cc12	18.1
c1ccc(CSCCc2ccncc2)cc1	> 100
